Reference: patent US10881642B2, “Autophagy enhancer and use thereof” (Industry-Academic Cooperation Foundation, Yonsei University, priority 2016, dated 2021)

Test system: INS-1 cells transfected with prepro-hIAPP-HA
Experiment: pro-hIAPP accumulation and apoptosis in transfected INS-1 cells
Type: cell-based, mice
Details: for accumulation of pro-hIAPP dimers: western blot, anti-HA
Procedure: (FIG. 13A) INS-1 cells transfected with non-amyloidogenic prepro-mIAPP-HA or amyloidogenic prepro-hIAPP-HA construct were treated with MSL or MSL-7 followed by western blot analysis using anti-HA antibody. (FIG. 13B) the transfected cells of (FIG. 13A) were treated with MSL-7 in the presence or absence of bafilomycin followed by western blot analysis using anti-HA antibody. (FIG. 13C) The transfected cells were treated with MSL-7 in the presence or absence of 3-MA, after which the amount of […] contained in the cell lysates were measured. (FIG. 13D) HFD-fed hIAPP+ mice were administered with MSL-7, and non-fasting glucose level was monitored. (FIG. 13E) IPGTT. (FIG. 13F) HFD-fed hIAPP+ mice were administered with MSL-7 for 8 weeks and the insulinogenic index was measured. (FIG. 13G) HFD-fed hIAPP+ mice were administered with MSL-7 for 8 weeks and the pancreatic section was obtained. All antibody was used for immunohistochemistry (left). The percentage of A11-[…] cells among DAPI+ cells (right). (FIG. 13H) FSB stained pancreatic section of HFD-fed hIAPP+ mice administered with MSL-7 for 8 weeks (left). Average fluorescence intensity/area (right).
Screening of autophagy enhancer. […] Luciferase assay. […] Firefly luciferase was determined after mixing 5 μl of lysate with 25 μl of Luciferase Assay Reagent II. Renilla luciferase was then determined after further addition of 20 ul of Stop&Glo Reagent. […] Cytotoxicity was determined by the measurement of LDH release in cell culture media using the LDH kit (Roche), according to the protocol from the manufacturer. […] Imaging and image quantification. […] Formation of acidic vesicular organelles was quantitated by staining the cells with acridine orange (Invitrogen, 5 ug/ml, 10 min). […] Cells or tissues were solubilized in lysis buffer supplemented with protease and phosphatase inhibitors and protein concentration was measured by the Bradford method. Ten to 30 micrograms were loaded on 4-12% Bis-Tris gel (NUPAGE, Invitrogen) or 8-15% SDS-PAGE, transferred to PVDF membranes and analyzed by western blot using the ECL method (Pierce). […]

Structure (SMILES) | apoptosis of cells transfected with prepro-hIAPP (in the presence of 3-MA) | accumulation of pro-hIAPP dimers
COc1oc(-c2ccccc2Cl)nc1S(=O)(=O)c1ccccc1 [MSL-7, 2-(2-chlorophenyl)-5-methoxy-4-(phenylsulfonyl) oxazole] | significantly reduced | reduced
CSc1oc(-c2ccccc2)nc1S(=O)(=O)c1ccc(F)cc1 [MSL] | – | reduced
